From patent publication EP4417602A1, “SUBSTITUTED PYRAZOLE CARBOXAMIDES, SALTS THEREOF AND THEIR USE AS HERBICIDALLY ACTIVE SUBSTANCES” (Bayer AG, priority 2023, dated 2024)
One block for each compound: values may come before it.

Columns and labels:
ZEAMX = assay: D. Pre-emergence effects on crop plants (Tables D); format: in vivo, Zea mays; settings: crop plant
Summary of the method: (§1)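 Seeds sown in sandy loam and covered; WP or EC formulations sprayed onto the soil surface as aqueous suspension/emulsion with 0.5% additive, at 320 g/ha or below. Greenhouse-grown; visual damage scored after ca. 3 weeks against untreated controls (0% = as control, 100% = plants dead).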

TRZAS = assay: D. Pre-emergence effects on crop plants (Tables D); format: in vivo, Triticum aestivum; settings: crop plant
From the text: Seeds of mono- and dicotyledonous weed plants and crop plants were sown, in plastic or organic planting pots, in sandy loam and covered with soil. The compounds according to the invention, formulated in the form of wettable powders (WP) or as emulsifiable concentrates (EC), were applied to the surface of the covering soil as aqueous suspension or emulsion, with the addition of 0.5% of an additive, at an application rate of 6001 of water/ha (converted).
Following treatment, the pots were placed in a greenhouse and kept under optimum growth conditions for the test plants. The visual grading of the damage to the test plants was carried out after ca. 3 weeks in comparison to untreated controls (herbicidal effect in percent (%): 100% effect = plants have died off, 0% effect = as control plants).
Tables D1 to D5 below show the effects of various compounds of the general formula (I) according to Table 1 on various crop plants and an application rate corresponding to 320 g/ha or below obtained by the experimental procedure mentioned above in Biological Examples, Section C. Table D1a: pre-emergence activity at 320g/ha against ZEAMX in %

BRSNW = assay: D. Pre-emergence effects on crop plants (Tables D); format: in vivo, Brassica napus; settings: crop plant
Summary of the method: as §1

SETVI = assay: C. Herbicidal pre-emergence action, weed and crop plants (Tables C); format: in vivo, Setaria viridis; settings: application rate 320 g/ha; Table C10
From the text: (§2) Seeds of mono- and dicotyledonous weed plants and crop plants were sown, in plastic or organic planting pots, in sandy loam and covered with soil. The compounds according to the invention, formulated in the form of wettable powders (WP) or as emulsifiable concentrates (EC), were applied to the surface of the covering soil as aqueous suspension or emulsion, with the addition of 0.5% of an additive, at an application rate of 6001 of water/ha (converted). Following treatment, the pots were placed in a greenhouse and kept under optimum growth conditions for the test plants. The visual grading of the damage to the test plants was carried out after ca. 3 weeks in comparison to untreated controls (herbicidal effect in percent (%): 100% effect = plants have died off, 0% effect = as control plants). Tables C1 to C12 below show the effects of selected compounds of the general formula (I) according to table 1 on various harmful plants and an application rate corresponding to 320 g/ha or below obtained by the experimental procedure mentioned above. Table C1: pre-emergence activity at 320g/ha against KCHSC in %

ORYZA = assay: F. Post-emergence effects on crop plants (Tables F); format: in vivo, Oryza sativa; settings: crop plant
From the text: Seeds of mono- and dicotyledonous weed plants and crop plants were sown, in plastic or organic planting pots, in sandy loam, covered with soil and grown in a greenhouse under controlled growth conditions. 2 to 3 weeks after sowing, the test plants were sprayed in the single-leaf stage. The compounds according to the invention, formulated in form of wettable powders (WP) or as emulsifiable concentrates (EC), were sprayed onto the green plant parts as aqueous suspension or emulsion, with the addition of 0.5% of an additive, at an application rate of 6001 of water/ha (converted). The test plants were placed in the greenhouse for ca. 3 weeks under optimum growth conditions, and then the effect of the preparations was assessed visually in comparison with untreated controls (herbicidal effect in percent (%): 100% effect = plants have died off, 0% effect = as control plants). Tables F1 to F5 below show the effects of selected compounds of the general formula (I) according to table 1 on various crop plants and an application rate corresponding to 320 g/ha or below obtained by the experimental procedure mentioned above. Table […]: post-emergence activity at 320g/ha against ZEAMX in %

MATIN = assay: C. Herbicidal pre-emergence action, weed and crop plants (Tables C); format: in vivo, Matricaria inodora; settings: application rate 320 g/ha; Table C8
From the text: as §2

ALOMY = assay: E. Herbicidal post-emergence action, weed and crop plants (Tables E); format: in vivo, Alopecurus myosuroides; settings: application rate 320 g/ha, visual assessment after ca. 3 weeks
From the text: (§3) Seeds of mono- and dicotyledonous weed plants and crop plants were sown, in plastic or organic planting pots, in sandy loam, covered with soil and grown in a greenhouse under controlled growth conditions. 2 to 3 weeks after sowing, the test plants were sprayed in the single-leaf stage. The compounds according to the invention, formulated in form of wettable powders (WP) or as emulsifiable concentrates (EC), were sprayed onto the green plant parts as aqueous suspension or emulsion, with the addition of 0.5% of an additive, at an application rate of 6001 of water/ha (converted). The test plants were placed in the greenhouse for ca. 3 weeks under optimum growth conditions, and then the effect of the preparations was assessed visually in comparison with untreated controls (herbicidal effect in percent (%): 100% effect = plants have died off, 0% effect = as control plants). Tables E1 to E7 below show the effects of selected compounds of the general formula (I) according to table 1 on various harmful plants and an application rate corresponding to 320 g/ha or below obtained by the experimental procedure mentioned above. Table E1: post-emergence activity at 320g/ha against ALOMY in %

ECHCG = assay: as above; format: in vivo, Echinochloa crus-galli; settings: application rate 320 g/ha, visual assessment after ca. 3 weeks
From the text: as §3

VERPE = assay: C. Herbicidal pre-emergence action, weed and crop plants (Tables C); format: in vivo, Veronica persica; settings: application rate 320 g/ha; Table C11
From the text: as §2

AMARE = assay: A. Herbicidal pre-emergence action on harmful plants (Tables A); format: in vivo, Amaranthus retroflexus
Summary of the method: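 Values are visual percent damage relative to untreated controls, scored ca. 3 weeks after the compound was sprayed on the covering soil of sown pots (sandy loam) at rates up to 1280 g/ha, formulated as WP or EC with 0.5% additive.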

[1] = application rate 80 g/ha, Table D1b
[2] = application rate 80 g/ha, Table D2b
[3] = application rate 1280 g/ha, visual grading after ca. 3 weeks vs untreated controls, 100% = plants have died off, 0% = as control plants
[4] = application rate 320 g/ha, Table A8b

pre-emergence activity against ZEAMX (ZEAMX; [1]): 0% | pre-emergence activity against TRZAS (TRZAS; [2]): 0%
SMILES: COCc1nn2c(c1C(=O)N1CCCC1Cc1ccccc1F)CCC2 (racemic) [Example I-022]
pre-emergence activity against BRSNW in % (BRSNW; application rate 80 g/ha): 0% | pre-emergence activity against BRSNW in % (BRSNW; application rate 320 g/ha): 0%

pre-emergence activity against ZEAMX (ZEAMX; [1]): 10% | pre-emergence activity against ZEAMX (ZEAMX; application rate 320 g/ha, Table D1a): 20% | pre-emergence activity against TRZAS (TRZAS; [2]): 10%
SMILES: Cn1cc(C(=O)N2CCCC2Cc2ccc(F)cc2F)c(COc2ccccc2)n1 (racemic) [Example I-008]
pre-emergence activity against SETVI (SETVI): 90% | pre-emergence activity against BRSNW in % (BRSNW; application rate 80 g/ha): 0% | pre-emergence activity against BRSNW in % (BRSNW; application rate 320 g/ha): 10% | post-emergence activity against ORYZA in % (ORYZA; application rate 80 g/ha): 0% | post-emergence activity against ORYZA in % (ORYZA; application rate 320 g/ha): 0%

pre-emergence activity against ZEAMX (ZEAMX; [1]): 20%
SMILES: COCc1nn(C(=O)OC(C)(C)C)cc1C(=O)N1CCCC1Cc1ccccc1F (racemic) [Example I-040]
pre-emergence activity against MATIN (MATIN): 80% | pre-emergence activity against SETVI (SETVI): 80% | pre-emergence activity against BRSNW in % (BRSNW; application rate 80 g/ha): 0% | pre-emergence activity against BRSNW in % (BRSNW; application rate 320 g/ha): 0%

pre-emergence activity against ZEAMX (ZEAMX; [1]): 0% | pre-emergence activity against TRZAS (TRZAS; [2]): 0% | pre-emergence activity against TRZAS (TRZAS; application rate 320 g/ha, Table D2a): 20%
SMILES: Cn1cc(C(=O)N2CCCC2Cc2ccccc2F)c(COc2ccccc2)n1 (racemic) [Example I-006]
pre-emergence activity against BRSNW in % (BRSNW; application rate 80 g/ha): 0% | pre-emergence activity against BRSNW in % (BRSNW; application rate 320 g/ha): 10% | post-emergence activity against ALOMY in % (ALOMY): 90% | post-emergence activity against ORYZA in % (ORYZA; application rate 80 g/ha): 0% | post-emergence activity against ORYZA in % (ORYZA; application rate 320 g/ha): 0%

SMILES: COCc1nn(C)cc1C(=O)N1CCCC1Cc1ccccc1F (racemic) [Example I-002]
pre-emergence activity against MATIN (MATIN): 80% | pre-emergence activity against SETVI (SETVI): 80% | pre-emergence activity against BRSNW in % (BRSNW; application rate 80 g/ha): 0% | pre-emergence activity against BRSNW in % (BRSNW; application rate 320 g/ha): 0% | post-emergence activity against ECHCG in % (ECHCG): 80%

SMILES: COCc1nn(C)cc1C(=O)N1CCCC1C(O)c1ccccc1F (single isomer, unassigned) [Example I-053]
pre-emergence activity against MATIN (MATIN): 80% | pre-emergence activity against SETVI (SETVI): 90% | pre-emergence activity against VERPE (VERPE): 80% | pre-emergence activity against BRSNW in % (BRSNW; application rate 80 g/ha): 10%

pre-emergence activity against ZEAMX (ZEAMX; [1]): 0%
SMILES: C=C(c1ccccc1F)C1CCCN1C(=O)c1cn(C)nc1COC (racemic) [Example I-023]
pre-emergence activity against AMARE (AMARE; [3]): 90% | pre-emergence activity against MATIN (MATIN): 80% | pre-emergence activity against SETVI (SETVI): 90% | pre-emergence activity against BRSNW in % (BRSNW; application rate 80 g/ha): 0% | pre-emergence activity against BRSNW in % (BRSNW; application rate 320 g/ha): 0%

SMILES: COCc1c(C(=O)N2CCCC2Cc2ccccc2Cl)cnn1C (racemic) [Example I-170]
pre-emergence activity against MATIN (MATIN): 80% | pre-emergence activity against VERPE (VERPE): 80% | pre-emergence activity against BRSNW in % (BRSNW; application rate 80 g/ha): 0% | pre-emergence activity against BRSNW in % (BRSNW; application rate 320 g/ha): 0% | post-emergence activity against ALOMY in % (ALOMY): 80% | post-emergence activity against ECHCG in % (ECHCG): 80% | post-emergence activity against ORYZA in % (ORYZA; application rate 80 g/ha): 0%

SMILES: COCc1nn(C)cc1C(=O)N1CCCC1Cc1ccccc1F (single isomer, unassigned) [Example I-003]
pre-emergence activity against AMARE (AMARE; [4]): 90% | pre-emergence activity against AMARE (AMARE; [3]): 90% | pre-emergence activity against MATIN (MATIN): 80% | pre-emergence activity against SETVI (SETVI): 80% | pre-emergence activity against VERPE (VERPE): 80% | pre-emergence activity against BRSNW in % (BRSNW; application rate 80 g/ha): 0% | pre-emergence activity against BRSNW in % (BRSNW; application rate 320 g/ha): 0% | post-emergence activity against ALOMY in % (ALOMY): 80% | post-emergence activity against ECHCG in % (ECHCG): 80% | post-emergence activity against ORYZA in % (ORYZA; application rate 80 g/ha): 0%

SMILES: COCc1c(C(=O)N2CCCC2Cc2ccccc2F)cnn1C (single isomer, unassigned) [Example I-157]
pre-emergence activity against AMARE (AMARE; [4]): 90% | pre-emergence activity against AMARE (AMARE; [3]): 90% | pre-emergence activity against VERPE (VERPE): 80% | pre-emergence activity against BRSNW in % (BRSNW; application rate 80 g/ha): 0% | pre-emergence activity against BRSNW in % (BRSNW; application rate 320 g/ha): 0% | post-emergence activity against ALOMY in % (ALOMY): 80% | post-emergence activity against ORYZA in % (ORYZA; application rate 80 g/ha): 10%

SMILES: CNC(=O)n1cc(C(=O)N2CCCC2Cc2ccccc2F)c(COC)n1 (racemic) [Example I-051]
pre-emergence activity against SETVI (SETVI): 80% | pre-emergence activity against BRSNW in % (BRSNW; application rate 80 g/ha): 0% | pre-emergence activity against BRSNW in % (BRSNW; application rate 320 g/ha): 0% | post-emergence activity against ALOMY in % (ALOMY): 80%
